What all share (type): in vivo
The test system of experiment [1] is Dermanyssus gallinae. Description: Miticidal effect against Dermanyssus gallinae (treated Pasteur pipette, contact test). The settings on record: 50 ppm in acetone, sucking adult mites, 24 hr after treatment, 25° C.; for pest or weed control at 50 ppm: Dermanyssus gallinae, read-out: Death rate, %. The text has this: (§1) The tip of a Pasteur pipette was sealed with Parafilm, and a sample compound diluted with acetone to 50 ppm was poured into the pipette from its top. The Parafilm in the tip of the pipette was removed one min after the pouring to discharge the test solution, and the pipette was air dried. Thereafter, an absorbent cotton was inserted into the upper end of the pipette, and 10 sucking adult mites of Dermanyssus gallinae were released in the pipette. The tip of the pipette was sealed with Hematoseal, and the pipette was then placed in a desiccator containing a saturated ammonium sulfate solution in its bottom and was stored under fully darkened conditions at 25° C. The mites were observed under a stereomicroscope 24 hr after the treatment to judge whether the mites were dead or survived, followed by determination of the death rate of mites (%).

For experiment [2], the system named is Haemaphysalis longicornis. Briefly: Tickcidal effect against Haemaphysalis longicornis (dry film on glass Schale). As to conditions: larva ticks, 24 hr, 25° C., relative humidity 100%; for pest or weed control at 10 ppm: Haemaphysalis longicornis, read-out: Death rate, %; for Death rate, %: 10 ppm. As for the experimental part: A test compound solution (1.0 ml) prepared by dissolving a test compound in acetone and diluting the solution with acetone to 10 ppm was dropped on a glass Schale having a diameter of 9 cm. Acetone was evaporated at room temperature to form a dry film of the test compound at the bottom of the Schale. Larva ticks of Haemaphysalis longicornis (40 to 100 head) were released in the Petri dish, and the Schale was then lidded and was hermetically sealed by covering with a polyethylene sheet. Rearing was carried out at a temperature of 25° C. and a relative humidity of 100% under fully darkened conditions. The number of ticks, which have fallen on their side, was counted 24 hr after the initiation of rearing. The death rate (%) was determined from the number of dead ticks. The test was repeated twice.

Experiment [3] has as its system Ctenocephalides felis. Briefly: Insecticidal effect against Ctenocephalides felis (dry film in glass tube). As to conditions: non-sucking adult fleas, 24 hr, 25° C., relative humidity 90%. The protocol:
Test compound solutions (0.5 ml) prepared by dissolving a test compound in acetone and diluting the solutions with acetone to designated concentrations were placed respectively in glass tubes (inner diameter 2.6 cm, height 12 cm), and acetone was evaporated at room temperature to form a dry film of the test compound at the bottom of each glass tube. Non-sucking adult fleas (10 heads) of Ctenocephalides felis were released in the glass tubes. The glass tubes were then lidded. Whether the fleas were dead or survived was judged 24 hr after the initiation of rearing. The death rate (%) was determined from the number of dead fleas. Rearing was carried out at a temperature of 25° C. and a relative humidity of 90% under fully darkened conditions. The test was repeated three times.

The subject of experiment [4] is Ornithonyssus sylviarum. Briefly: Miticidal effect against Ornithonyssus sylviarum (treated Pasteur pipette, contact test). As to conditions: 50 ppm in acetone, sucking adult mites, 24 hr after treatment, 25° C., read-out: Death rate, %.
Description: as §1, with “Ornithonyssus sylviarum” for “Dermanyssus gallinae”, “rate” for “rate of mites”

The values that follow come from patent US7022855B2, “Halogen-substituted quinoline derivatives and ectoparasite control agent” (Meiji Seika Kaisha, Ltd., priority 2001, dated 2006).

For `CCCSC(=O)Oc1c(C)c(CC)nc2ccc(F)c(F)c12` [Compound 55, 2-ethyl-3-methyl-4-propanethiolcarbonyloxy-5,6-difluoroquinoline], the “Death rate, %” value in experiment [1] was determined as 100%.
Take `C#CCCOC(=O)Oc1c(C)c(C)nc2ccc(F)c(F)c12` [Compound 52, 2,3-dimethyl-4-(3-butynyl)oxycarbonyloxy-5,6-difluoroquinoline]: the pest or weed control at 50 ppm in experiment [1] was 100%. In addition, the pest or weed control at 10 ppm in experiment [2] was 100%. Moreover, the “Death rate, %” value in experiment [3] (4 ppm) came to 70%.
Regarding “2,3-dimethyl-4-propargloxycarbonyloxy-5,6-difluoroquinoline [Compound 50]”, the “Death rate, %” value in experiment [1] is given as 95%; in experiment [2] it was 100%.
In the case of `COC(=O)Oc1c(C)c(C)nc2ccc(F)c(F)c12` [Compound 25, 2,3-dimethyl-4-methoxycarbonyl-oxy-5,6-difluoroquinoline], the pest or weed control at 50 ppm in experiment [1] and in experiment [4] was 100% throughout. For the same molecule, the pest or weed control at 10 ppm in experiment [2] is 100%.
As to `CCc1nc2ccc(F)c(F)c2c(OC(=O)OC)c1C` [Compound 24, 2-ethyl-3-methyl-4-methoxycarbonyloxy-5,6-difluoroquinoline], the pest or weed control at 50 ppm in experiment [1] and in experiment [4] was 100% throughout. In addition, the pest or weed control at 10 ppm in experiment [2] came out at 100%. The results for the “Death rate, %” value in experiment [3] (4 ppm) and in experiment [3] (20 ppm) were 84% and 100%, respectively.
Regarding `Cc1nc2ccc(F)c(F)c2c(OC(=O)/C=C/Cl)c1C` [Compound 53, 2,3-dimethyl-4-(3-transchloroacryloyloxy)-5,6-difluoroquinoline], the pest or weed control at 50 ppm in experiment [1] came out at 100%.
Turning to `C#CCCCC(=O)Oc1c(C)c(C)nc2ccc(F)c(F)c12` [Compound 58, 2,3-dimethyl-4-(5-hexynoyloxy)-5,6-difluoroquinoline], the pest or weed control at 50 ppm in experiment [1] turned out to be 80%.
Consider `CCc1nc2ccc(F)c(Cl)c2c(OC(=O)C2CC2)c1C` [Compound 21, 2-ethyl-3-methyl-4-cyclopropanecarbonyloxy-5-chloro-6-fluoroquinoline], for which the pest or weed control at 50 ppm in experiment [4] came out at 100%.
With `Cc1nc2ccc(F)c(F)c2c(OC(=O)/C=C\Cl)c1C` [Compound 54, 2,3-dimethyl-4-(3-cischloroacryloyloxy)-5,6-difluoroquinoline], the pest or weed control at 50 ppm in experiment [1] is 100%.
As to `COC(=O)Oc1c(C)c(C)nc2ccc(F)c(C(F)(F)F)c12` [Compound 62, 2,3-dimethyl-4-methoxycarbonyloxy-5-trifluoromethyl-6-fluoroquinoline], in experiment [1], the pest or weed control at 50 ppm turned out to be 100%.
For `CCc1nc2ccc(F)c(F)c2c(OC(=O)C2CC2)c1C` [Compound 2, 2-ethyl-3-methyl-4-cyclopropanecarbonyloxy-5,6-difluoroquinoline], the pest or weed control at 50 ppm in experiment [1] and in experiment [4] was 100% throughout. Moreover, the pest or weed control at 10 ppm in experiment [2] was 100%. For the same molecule, the “Death rate, %” value in experiment [3] (4 ppm) came out at 97%; in experiment [3] (20 ppm), 100%.
Take `CCc1nc2ccc(F)c(F)c2c(OC(=O)OC(C)C)c1C` [Compound 14, 2-ethyl-3-methyl-4-isopropoxycarbonyloxy-5,6-difluoroquinoline]: the pest or weed control at 50 ppm in experiment [4] is 100%.
Regarding `CCc1nc2ccc(F)c(Cl)c2c(OC(C)=O)c1C` [Compound 19, 2-ethyl-3-methyl-4-acetyloxy-5-chloro-6-fluoroquinoline], in experiment [4], the pest or weed control at 50 ppm turned out to be 100%. Further, in experiment [3] (4 ppm), the “Death rate, %” value was found to be 100%.
As for `CCC(=O)Oc1c(C)c(CC)nc2ccc(F)c(F)c12` [Compound 30, 2-ethyl-3-methyl-4-propionyloxy-5,6-difluoroqinoline], the “Death rate, %” value in experiment [1] and in experiment [2] was 100% in each case.
`CCc1nc2ccc(F)c(F)c2c(OC(=O)C(C)C)c1C` [Compound 48, 2-ethyl-3-methyl-4-isobutyryloxy-5,6-difluoroquinoline]: in experiment [1], the pest or weed control at 50 ppm turned out to be 100%.
Still for that read-out and setting: to `CC(=O)Oc1c(C)c(C)nc2ccc(Cl)c(Cl)c12` [Compound 65, 2,3-dimethyl-4-acetoxy-5,6-dichloro-quinoline] belongs 80%.
For `CCc1nc2ccc(F)c(F)c2c(OC(C)=O)c1C` [Compound 12, 2-ethyl-3-methyl-4-acetyloxy-5,6-difluoroquinoline], the results for the pest or weed control at 50 ppm in experiment [1] and in experiment [4] were 95% and 100%, respectively.
`CCCCOC(=O)Oc1c(C)c(CC)nc2ccc(F)c(F)c12` [Compound 13, 2-ethyl-3-methyl-4-butoxycarbonyloxy-5,6-difluoroquinoline]: the pest or weed control at 50 ppm in experiment [1] is 85%.
With `C=COC(=O)Oc1c(C)c(C)nc2ccc(F)c(F)c12` [Compound 51, 2,3-dimethyl-4-vinyloxycarbonyloxy-5,6-difluoroquinoline], the pest or weed control at 50 ppm in experiment [1] was 90%.
With `CSC(=O)Oc1c(C)c(C)nc2ccc(F)c(F)c12` [Compound 46, 2,3-dimethyl-4-methanethiolcarbonyloxy-5,6-difluoro-quinoline], the “Death rate, %” value in experiment [1] and in experiment [2] was 100% each time.
As for `CCOC(=O)Oc1c(C)c(CC)nc2ccc(F)c(F)c12` [Compound 33, 2-ethyl-3-methyl-4-ethoxycarbonyl-oxy-5,6-difluoroquinoline], the pest or weed control at 50 ppm in experiment [1] amounted to 100%.
With `C#CCOC(=O)Oc1c(C)c(CC)nc2ccc(F)c(F)c12` [Compound 41, 2-ethyl-3-methyl-4-propargyloxycarbonyloxy-5,6-difluoroquinoline], the pest or weed control at 50 ppm in experiment [1] was determined as 100%. Besides, the pest or weed control at 10 ppm in experiment [2] turned out to be 100%.
`COC(=O)Oc1c(C)c(C)nc2ccc(Cl)c(Cl)c12` [Compound 67, 2,3-dimethyl-4-methoxycarbonyloxy-5,6-dichloroquinoline]: the pest or weed control at 50 ppm in experiment [1] was determined as 100%.
Take `CCOC(=O)Oc1c(C)c(C)nc2ccc(F)c(F)c12` [Compound 45, 2,3-dimethyl-4-ethyloxycarbonyloxy-5,6-difluoroquinoline]: the pest or weed control at 50 ppm in experiment [1] is 100%.
With `CCc1nc2cc(F)c(F)cc2c(OC(=O)C2CC2)c1C` [Compound 1, 2-ethyl-3-methyl-4-cyclopropanecarbonyloxy-6,7-difluoroquinoline], the pest or weed control at 50 ppm in experiment [4] turned out to be 80%. Besides, the “Death rate, %” value in experiment [3] (20 ppm) is 100%.
In the case of `CCc1nc2ccc(F)c(F)c2c(OC(=O)SC)c1C` [Compound 39, 2-ethyl-3-methyl-4-methanethiolcarbonyloxy-5,6-difluoroquinoline], the “Death rate, %” value in experiment [1] is reported as 100%; in experiment [2], 100%; in experiment [3] (4 ppm), 80%.
Consider `C#CCCOC(=O)Oc1c(C)c(CC)nc2ccc(F)c(F)c12` [Compound 56, 2-ethyl-3-methyl-4-(3-butynyl)oxycarbonyloxy-5,6-difluoroquinoline], for which, in experiment [1], the pest or weed control at 50 ppm was determined as 95%. The pest or weed control at 10 ppm in experiment [2] is 100%.
Consider `Cc1nc2ccc(F)c(F)c2c(OC(=O)C2CC2)c1C` [Compound 16, 2,3-dimethyl-4-cyclopropanecarbonyloxy-5,6-difluoroquinoline], for which the pest or weed control at 50 ppm amounted to 100% in experiment [1] and 80% in experiment [4]. Moreover, in experiment [2], the pest or weed control at 10 ppm worked out at 100%.
On to `CC(=O)Oc1c(C)c(C)nc2ccc(F)c(F)c12` [Compound 44, 2,3-dimethyl-4-acetoxy-5,6-difluoro-quinoline], for which the pest or weed control at 50 ppm in experiment [1] is 100%. Moreover, the pest or weed control at 10 ppm in experiment [2] was found to be 100%.
Turning to `C=CCOC(=O)Oc1c(C)c(C)nc2ccc(F)c(F)c12` [Compound 57, 2,3-dimethyl-4-allyloxycarbonyloxy-5,6-difluoroquinoline], the pest or weed control at 50 ppm in experiment [1] stood at 100%.
